In patent US8802597B2, “Herbicidal pyrimidines” (E I du Pont de Nemours and Company, priority 2003, dated 2014):

Legend:
Assay type in all cases: in vivo
[1] = system: Surinam grass (Brachiaria decumbens); experiment: Test C pre/postemergence; settings: for Plant response rating (scale of 0 to 100), Surinam Grass / Surinam Grass plant response rating: Postemergence; for Surinam Grass plant response rating: 125 g ai/ha, scale 0 to 100 (0 no effect, 100 complete control); for Plant response rating, Surinam Grass: Preemergence, scale 0 to 100, 0 no effect, 100 complete control
Method in brief: (§1)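 Applications: preemergence onto seeded soil and postemergence onto 1- to 4-leaf seedlings, compound carried in non-phytotoxic solvent plus surfactant. Kept in greenhouse 12 to 14 days. Scored visually relative to untreated controls, 0 (no effect) to 100 (complete control).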

corn (Zea mays) = experiment: Test C pre/postemergence; settings: for Plant response rating, Corn: Preemergence
Method in brief: as §1

[2] = system: goosegrass (Eleusine indica); experiment: Test C pre/postemergence; settings: for Plant response rating (scale of 0 to 100), Goosegrass / Goosegrass plant response rating: Postemergence; for Goosegrass plant response rating: scale 0 to 100 (0 no effect, 100 complete control); for Plant response rating, Goosegrass: Preemergence
Method in brief: as §1

[3] = system: purple redstem (Ammannia coccinea); experiment: Test E flooded paddy water application; settings: Flood, 21 days, scale 0 to 100 (0 no effect, 100 complete control)
Method in brief: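 Weeds sown in sterilized Tama silt loam (2.6% organic matter), greenhouse 29.5/26.7° C, 16-h photoperiod; at 2.0–2.5-leaf stage pots flooded to 3 cm and compound added to paddy water. Visual rating vs untreated controls after 21 days, 0 (no effect) to 100 (complete control).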

[4] = 16 g ai/ha, scale 0 to 100, 0 no effect, 100 complete control
[5] = 31 g ai/ha, scale 0 to 100, 0 no effect, 100 complete control
[6] = 62 g ai/ha, scale 0 to 100, 0 no effect, 100 complete control

SMILES | Plant response rating (scale of 0 to 100), Surinam Grass ([1]; 16 g ai/ha) | Plant response rating (scale of 0 to 100), Surinam Grass ([1]; 31 g ai/ha) | Plant response rating (scale of 0 to 100), Surinam Grass ([1]; 62 g ai/ha) | Surinam Grass plant response rating [1] | Plant response rating (scale of 0 to 100), Corn (corn (Zea mays); Postemergence, 16 g ai/ha) | Plant response rating (scale of 0 to 100), Corn (corn (Zea mays); Postemergence, 31 g ai/ha) | Plant response rating (scale of 0 to 100), Goosegrass ([2]; 16 g ai/ha) | Plant response rating (scale of 0 to 100), Goosegrass ([2]; 31 g ai/ha) | Plant response rating (scale of 0 to 100), Goosegrass ([2]; 62 g ai/ha) | Goosegrass plant response rating ([2]; 125 g ai/ha) | Redstem plant response rating ([3]; 64 g ai/ha) | Redstem plant response rating ([3]; 125 g ai/ha) | Redstem plant response rating ([3]; 250 g ai/ha) | Plant response rating, Redstem ([3]; 16 g ai/ha) | other results
Nc1nc(-c2ccc(Cl)cc2)nc(C(=O)[O-])c1Cl.[Na+] [Compound 117] | 45 | 50 | 80 | 80 | 30 | 30 | 40 | 40 | 75 | 80 | 0 | 0 | 30 | 0 | Plant response rating, Surinam Grass ([1]; 16 g ai/ha): 40; Plant response rating, Surinam Grass ([1]; 31 g ai/ha): 40; Plant response rating, Surinam Grass ([1]; 62 g ai/ha): 50; Plant response rating, Corn (corn (Zea mays); [4]): 0; Plant response rating, Corn (corn (Zea mays); [5]): 5; Plant response rating, Corn (corn (Zea mays); [6]): 20; Plant response rating, Corn (corn (Zea mays); 125 g ai/ha, scale 0 to 100): 25; Plant response rating, Goosegrass [2, 4]: 0; Plant response rating, Goosegrass [2, 5]: 0; Plant response rating, Goosegrass [2, 6]: 0; Plant response rating, Goosegrass ([2]; 125 g ai/ha, scale 0 to 100): 30; Redstem plant response rating ([3]; 32 g ai/ha): 0
CCOC(=O)c1nc(-c2ccc(I)cc2)nc(N)c1Cl [Compound 133] | 35 | 45 | 55 | 70 | 35 | 40 | 15 | 55 | 65 | 70 | 65 | 75 | 85 | 0 | Plant response rating (scale of 0 to 100), Corn (corn (Zea mays); Postemergence, 62 g ai/ha): 60; Corn plant response rating (corn (Zea mays); Postemergence, 125 g ai/ha, scale 0 to 100 (0 no effect, 100 complete control)): 80; Plant response rating, Redstem ([3]; 32 g ai/ha): 20
